According to patent publication US20240390298A1, “CYCLOHEXYL BETA-HYDROXY ALKYL AMINES AND MEDICAL USES THEREOF” (ATROGI AB, priority 2021, published 2024):
Where a name gives a salt, the structure may show the parent alone.

Legend:
L6-myotubes [1] = assay: Glucose uptake in differentiated L6-myotubes (3H-2-deoxyglucose), compared to isoproterenol; type: cell-based; settings: agonist 1×10^−5 M, 50 nM 3H-2-deoxyglucose; for Emax at 10 µM: read-out: Biological example 1: glucose uptake, activity compared to that of isoproterenol
Method in brief: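 Serum-starved differentiated L6 myotubes stimulated with agonist at 1×10^−5 M for 1 h 40 min, re-dosed in glucose-free medium for 20 min, then given 50 nM ^3H-2-deoxyglucose for 10 min. Uptake read by β-counting of NaOH lysates; activity expressed relative to isoproterenol.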

L6-myotubes [2] = assay: Measurement of intracellular cAMP levels in differentiated L6 cells (alpha screen cAMP kit), compared to isoproterenol; type: cell-based; settings: agonist 1×10^−5 M, 15 min; for Emax at 10 µM: Rattus norvegicus, L6, 0.25 h, read-out: Biological example 2: intracellular cAMP levels, activity compared to that of isoproterenol
Method in brief: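 L6 myoblasts were differentiated into myotubes over 7 days in 2% FBS, then serum-starved overnight. Agonist at 1×10^−5 M final was applied for 15 min in HBSS with 1% BSA, 5 mM HEPES and 1 mM IBMX, pH 7.4. After ethanol extraction and lysis, cAMP was quantified by AlphaScreen, with activity expressed relative to isoproterenol.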

| SMILES | Emax at 10 µM (L6-myotubes [1]) | Emax at 10 µM (L6-myotubes [2]) | Biological example 1: glucose uptake, activity compared to that of isoproterenol (L6-myotubes [1]) | Biological example 2: intracellular cAMP levels, activity compared to that of isoproterenol (L6-myotubes [2]) |
| --- | --- | --- | --- | --- |
| O[C@@H](CNC[C@H]1CC[C@H](OCc2ccccc2)CC1)c1cncc(F)c1 [Example 31, (R)-2-((((1r,4R)-4-(Benzyloxy)cyclohexyl)methyl)amino)-1-(5-fluoropyridin-3-yl)ethan-1-ol] | 25 to 50% | < 25% | – | – |
| CC(C)(NC[C@H](O)c1cncc(F)c1)[C@H]1CC[C@H](O)CC1 [Example 40, (1R,4r)-4-(2-(((R)-2-(5-Fluoropyridin-3-yl)-2-hydroxyethyl)amino)propan-2-yl)cyclohexan-1-ol] | – | < 25% | + + | – |
| CC(C)(C[C@H]1CC[C@@H](N)CC1)NC[C@H](O)c1cccc(F)c1 [Example 163, (R)-2-((1-((1s,4S)-4-Aminocyclohexyl)-2-methylpropan-2-yl)amino)-1-(3-fluorophenyl)ethan-1-ol] | – | < 25% | + + + | – |
| CO[C@H]1CC[C@H](CNC[C@H](O)c2cccc(F)c2)CC1 [Example 3, (R)-1-(3-Fluorophenyl)-2-((((1r,4R)-4-methoxycyclohexyl)methyl)amino)-ethan-1-ol] | – | < 25% | + + | – |
| CC(C)(C[C@H]1CC[C@H](NC(=O)C(F)(F)F)CC1)NC[C@H](O)c1cccc(F)c1.Cl [Example 157, 2,2,2-Trifluoro-N-((1R,4r)-4-(2-(((R)-2-(3-fluorophenyl)-2-hydroxyethyl)-amino)-2-methylpropyl)cyclohexyl)acetamide hydrochloride] | – | 25 to 50% | + + + | – |
| CC(C)(C[C@H]1CC[C@@H](S(N)(=O)=O)CC1)NC[C@H](O)c1cccc(F)c1.Cl [Example 196, (1S,4s)-4-(2-(((R)-2-(3-Fluorophenyl)-2-hydroxyethyl)amino)-2-methylpropyl)cyclohexane-1-sulfonamide hydrochloride] | – | < 25% | + + + | – |
| O[C@@H](CNC[C@H]1CC[C@H](OCc2ccccc2)CC1)c1cccc(F)c1 [Example 29, (R)-2-((((1r,4R)-4-(Benzyloxy)cyclohexyl)methyl)amino)-1-(3-fluoro-phenyl)ethan-1-ol] | 25 to 50% | < 25% | – | – |
| CO[C@H]1CC[C@H](CCNC[C@H](O)c2cccc(F)c2)CC1 [Example 11, (R)-1-(3-Fluorophenyl)-2-((2-((1r,4R)-4-methoxycyclohexyl)ethyl)amino)-ethan-1-ol] | 25 to 50% | < 25% | – | – |
| CC(C)(C[C@H]1CC[C@@H](NC(=O)C2CCC2)CC1)NC[C@H](O)c1cccc(F)c1 [Example 167, N-((1S,4s)-4-(2-(((R)-2-(3-Fluorophenyl)-2-hydroxyethyl)amino)-2-methylpropyl)cyclohexyl)cyclobutanecarboxamide hydrochloride] | – | < 25% | + + | – |
| COC(=O)[C@H]1CC[C@H](CCC(C)(C)NC[C@H](O)c2cccc(F)c2)CC1 [Example 115, Methyl (1R,4r)-4-(3-(((R)-2-(3-fluorophenyl)-2-hydroxyethyl)amino)-3-methylbutyl)cyclohexane-1-carboxylate] | – | < 25% | + + + | – |
| CC(C)(C[C@H]1CC[C@@H](NC(=O)OC(C)(C)C)CC1)NC[C@H](O)c1cccc(C#N)n1 [Example 133, tert-Butyl ((1R,4s)-4-(2-(((5)-2-(6-Cyanopyridin-2-yl)-2-hydroxyethyl)-amino)-2-methylpropyl)cyclohexyl)carbamate] | – | < 25% | + + | – |
| O[C@@H](CNCC[C@H]1CC[C@@H](O)CC1)c1cncc(F)c1 [Example 44, (1S,4s)-4-(2-(((R)-2-(5-Fluoropyridin-3-yl)-2-hydroxyethyl)amino)-ethyl)cyclohexan-1-ol] | 25 to 50% | < 25% | – | – |
| CC(C)(C[C@H]1CC[C@@H](C#N)CC1)NC[C@H](O)c1cccc(F)c1 [Example 129, (1S,4s)-4-(2-(((R)-2-(3-Fluorophenyl)-2-hydroxyethyl)amino)-2-methylpropyl)cyclohexane-1-carbonitrile] | – | 25 to 50% | + + + | – |
| CC(C)(CC[C@H]1CC[C@@H](O)CC1)NC[C@H](O)c1ccccc1F [Example 65, (1R,4s)-4-(3-(((R)-2-(2-Fluorophenyl)-2-hydroxyethyl)amino)-3-methyl-butyl)cyclohexan-1-ol] | – | 25 to 50% | + + + | – |
| CC(=O)N(C)[C@H]1CC[C@@H](CC(C)(C)NC[C@H](O)c2cccc(F)c2)CC1.Cl [Example 180, N-((1S,4s)-4-(2-(((R)-2-(3-Fluorophenyl)-2-hydroxyethyl)amino)-2-methylpropyl)cyclohexyl)-N-methylacetamide hydrochloride] | – | < 25% | + + | – |
| CC(C)(C[C@H]1CC[C@H](NS(C)(=O)=O)CC1)NC[C@@H](O)c1cccc(C#N)n1 [Example 136, N-((1R,4r)-4-(2-(((R)-2-(6-Cyanopyridin-2-yl)-2-hydroxyethyl)amino)-2-methylpropyl)cyclohexyl)methanesulfonamide] | – | < 25% | + + | – |
| CC(=O)N[C@H]1CC[C@H](CC(C)(C)NC[C@H](O)c2cccnc2C)CC1.Cl [Example 145, N-((1R,4r)-4-(2-(((R)-2-Hydroxy-2-(2-methylpyridin-3-yl)ethyl)amino)-2-methylpropyl)cyclohexyl)acetamide dihydrochloride] | – | < 25% | + + + | – |
| CC(=O)N[C@H]1CC[C@H](CC(C)(C)NC[C@@H](O)c2cccc(C#N)n2)CC1 [Example 135, N-((1R,4r)-4-(2-(((R)-2-(6-Cyanopyridin-2-yl)-2-hydroxyethyl)amino)-2-methylpropyl)cyclohexyl)acetamide] | – | < 25% | + + | – |
| CN(C)S(=O)(=O)[C@H]1CC[C@H](CC(C)(C)NC[C@H](O)c2cccc(F)c2)CC1.Cl [Example 186, (1R,4r)-4-(2-(((R)-2-(3-Fluorophenyl)-2-hydroxyethyl)amino)-2-methyl-propyl)-N,N-dimethylcyclohexane-1-sulfonamide hydrochloride] | – | – | + + + | + + |
| CC(C)(NC[C@H](O)c1cncc(F)c1)[C@H]1CC[C@H](N)CC1 [Example 79] | < 25% | < 25% | – | – |
| O[C@@H](CNC[C@H]1CC[C@@H](O)CC1)c1cccc(F)c1 [Example 26, (1S,4s)-4-((((R)-2-(3-Fluorophenyl)-2-hydroxyethyl)amino)methyl)-cyclohexan-1-ol] | 25 to 50% | < 25% | – | – |
| CN(C)S(=O)(=O)[C@H]1CC[C@H](CC(C)(C)NC[C@H](O)c2cncc(F)c2)CC1 [Example 187, (1R,4r)-4-(2-(((R)-2-(5-Fluoropyridin-3-yl)-2-hydroxyethyl)amino)-2-methylpropyl)-N,N-dimethylcyclohexane-1-sulfonamide dihydrochloride] | – | 25 to 50% | + + + | – |
